Measurements taken from PubChem BioAssay AID256 (DTP/NCI, 2004).
Inconclusive results and toxic doses are left out. Rule for the calls: active = survival T/C of 150% or more; inactive = T/C below 125% in these data.

Test system: CD2F1 mice, L1210 leukemia ip, survival T/C
Test: NCI In Vivo Anticancer Drug Screen. Data for tumor model L1210 Leukemia (intraperitoneal) in CD2F1 (CDF1) mice
Conditions: endpoint: mean survival time, higher = longer survival
How it was run: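 Read-out first: treated-group measurement over vehicle-control measurement, expressed as a ratio. Animals bore a transplanted tumor line and were dosed with compound or vehicle.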

[1] = dose: 50.0 mg/kg/injection, schedule: Q04DX002 (ip), vehicle: saline with Tween-80
[2] = dose: 100.0 mg/kg/injection, schedule: Q04DX002 (ip), vehicle: saline with Tween-80
[3] = dose: 50.0 mg/kg/injection, schedule: Q01DX009 (ip), vehicle: saline with Tween-80
[4] = dose: 200.0 mg/kg/injection, schedule: Q01DX009 (ip), vehicle: saline with Tween-80
[5] = dose: 200.0 mg/kg/injection, schedule: Q04DX002 (ip), vehicle: saline with Tween-80
[6] = dose: 100.0 mg/kg/injection, schedule: Q04DX003 (ip), vehicle: saline with Tween-80
[7] = dose: 200.0 mg/kg/injection, schedule: Q04DX003 (ip), vehicle: saline with Tween-80
[8] = dose: 400.0 mg/kg/injection, schedule: Q04DX003 (ip), vehicle: saline with Tween-80

Measured: T/C

O=C(O)C(CO)C(CO)C(=O)O (stereo not given)
inactive: dose: 50.0 mg/kg/injection, schedule: Q01DX001 (ip), vehicle: saline 107 % of control | dose: 100.0 mg/kg/injection, schedule: Q01DX001 (ip), vehicle: saline 121 % of control | dose: 200.0 mg/kg/injection, schedule: Q01DX001 (ip), vehicle: saline 101 % of control | dose: 400.0 mg/kg/injection, schedule: Q01DX001 (ip), vehicle: saline 106 % of control

CN(C)c1ccc(N=Nc2ccc(CI)cc2)cc1
inactive: dose: 25.0 mg/kg/injection, schedule: Q04DX003 (ip), vehicle: Klucel (hydroxypropylcellulose) (HPC) 89 % of control | dose: 50.0 mg/kg/injection, schedule: Q04DX003 (ip), vehicle: Klucel (hydroxypropylcellulose) (HPC) 112 % of control | dose: 100.0 mg/kg/injection, schedule: Q04DX003 (ip), vehicle: Klucel (hydroxypropylcellulose) (HPC) 96 % of control | dose: 200.0 mg/kg/injection, schedule: Q04DX003 (ip), vehicle: Klucel (hydroxypropylcellulose) (HPC) 93 % of control

O=C(CC(O)C(Cl)(Cl)Cl)c1ccccc1 (stereo not given)
inactive: [1] 88 % of control | [2] 88 % of control

Nc1nc(N)c2c(n1)NCN(Cc1ccc(Cl)c(Cl)c1)C2
inactive: dose: 0.75 mg/kg/injection, schedule: Q01DX009 (ip), vehicle: water 102 % of control | dose: 1.5 mg/kg/injection, schedule: Q01DX009 (ip), vehicle: water 98 % of control | dose: 3.0 mg/kg/injection, schedule: Q01DX009 (ip), vehicle: water 102 % of control | dose: 6.0 mg/kg/injection, schedule: Q01DX009 (ip), vehicle: water 102 % of control | dose: 12.0 mg/kg/injection, schedule: Q01DX009 (ip), vehicle: water 100 % of control | dose: 24.0 mg/kg/injection, schedule: Q01DX009 (ip), vehicle: water 102 % of control | dose: 50.0 mg/kg/injection, schedule: Q01DX009 (ip), vehicle: water 94 % of control

O=C(CNC(=O)Nc1cccc(C(F)(F)F)c1)N/N=C/c1cccc([N+](=O)[O-])c1
inactive: [3] 96 % of control | dose: 100.0 mg/kg/injection, schedule: Q01DX009 (ip), vehicle: saline with Tween-80 88 % of control | [4] 92 % of control

CC1=C(CCC(=O)O)C(=O)C(CCC(=O)O)C(C)(C)C1 (stereo not given)
inactive: [2] 96 % of control | [5] 100 % of control | dose: 400.0 mg/kg/injection, schedule: Q04DX002 (ip), vehicle: saline with Tween-80 100 % of control

CCOC(=O)c1cnc(SCc2ccccc2)[nH]c1=O
inactive: [6] 107 % of control | [7] 110 % of control | [8] 102 % of control

CCC12C=CC(OC)(CC1)C(C#N)C2 (stereo not given)
inactive: [1] 103 % of control | [2] 100 % of control | [5] 91 % of control

COc1cc(C=C2C(=O)C=CC2=O)ccc1O
inactive: dose: 3.13 mg/kg/injection, schedule: Q04DX002 (ip), vehicle: saline with Tween-80 108 % of control | dose: 6.25 mg/kg/injection, schedule: Q04DX002 (ip), vehicle: saline with Tween-80 100 % of control | dose: 12.5 mg/kg/injection, schedule: Q04DX002 (ip), vehicle: saline with Tween-80 106 % of control

CCCCCCCCC(=O)c1ccc(N=Nc2ccc(OCC)cc2)cc1
inactive: [6] 94 % of control | [7] 91 % of control | [8] 89 % of control

Cc1cc2nc(Cc3ccccc3)[nH]c2cc1C
inactive: dose: 12.5 mg/kg/injection, schedule: Q01DX009 (ip), vehicle: saline with Tween-80 102 % of control | dose: 25.0 mg/kg/injection, schedule: Q01DX009 (ip), vehicle: saline with Tween-80 95 % of control | [3] 91 % of control | [6] 94 % of control | [7] 86 % of control

O=[N+]([O-])c1ccc(C(F)(F)F)cc1
inactive: [6] 104 % of control | [7] 102 % of control

COC(=O)C(CC(C)C)NC(=O)c1ccccc1 (stereo not given)
inactive: [6] 98 % of control | [7] 97 % of control | [8] 95 % of control

Oc1ccc(O)c(CCCCCc2cc(O)ccc2O)c1
inactive: dose: 100.0 mg/kg/injection, schedule: Q01DX009 (ip), vehicle: other 102 % of control | dose: 200.0 mg/kg/injection, schedule: Q01DX009 (ip), vehicle: other 98 % of control

Cc1cc(NCCCCCCNc2cc(C)[n+](C)c3c(Cl)cccc23)c2cccc(Cl)c2[n+]1C
inactive: dose: 12.5 mg/kg/injection, schedule: Q01DX009 (ip), vehicle: Klucel (hydroxypropylcellulose) (HPC) 98 % of control | dose: 25.0 mg/kg/injection, schedule: Q01DX009 (ip), vehicle: Klucel (hydroxypropylcellulose) (HPC) 98 % of control | dose: 50.0 mg/kg/injection, schedule: Q01DX009 (ip), vehicle: Klucel (hydroxypropylcellulose) (HPC) 94 % of control

O=[N+]([O-])c1ccc(/C=N\N=C\c2ccco2)cc1
inactive: [6] 88 % of control | [4] 86 % of control | [7] 111 % of control | [8] 102 % of control

COc1cc2ccnc(Cc3ccc4c(c3)OCO4)c2cc1OC
inactive: dose: 100.0 mg/kg/injection, schedule: Q01DX009 (ip), vehicle: saline 94 % of control | dose: 100.0 mg/kg/injection, schedule: Q04DX003 (ip), vehicle: saline sonified 95 % of control | dose: 200.0 mg/kg/injection, schedule: Q01DX009 (ip), vehicle: saline 95 % of control | dose: 200.0 mg/kg/injection, schedule: Q04DX003 (ip), vehicle: saline sonified 105 % of control | dose: 400.0 mg/kg/injection, schedule: Q01DX009 (ip), vehicle: saline 95 % of control | dose: 400.0 mg/kg/injection, schedule: Q04DX003 (ip), vehicle: saline sonified 93 % of control
